Values after ≈ are worked out from the molar mass of the structure shown. One block for each compound: values may come before it. Active and inactive are the calls of the source. No cut-off for these calls is given here.
Columns and labels:
SJSA-1 [1] = assay: Antiproliferative activity against human SJSA1 cells expressing wildtype p53 after 3 days by luminescent cell viability assay; assay type: functional; settings: SJSA-1, 72 h
[2] = Solubility in phosphate buffer at 10 mM at pH 6.8 by HPLC analysis; assay type: physicochemical
[3] = Antiproliferative activity against human DLD1 cells expressing mutant p53 after 3 days by luminescent cell viability assay; assay type: cell-based, DLD-1
[4] = Metabolic stability in mouse hepatic microsome assessed as compound remaining measured at 1 uM after 30 mins by LC-MS/MS analysis; assay type: ADME; settings: liver microsomes, read-out: Stability
[5] = Cmax in mouse at 100 mg/kg, po; assay type: ADME, organism-based; parameters: dose 100 mg/kg, route oral; settings: in vivo
[6] = AUC in mouse plasma at 25 mg/kg, po; assay type: ADME, organism-based; parameters: dose 25 mg/kg, route oral
Mus musculus [7] = assay: Toxicity in human SJSA1 cells xenografted in BALB/c SLc-nu/nu mouse assessed as body weight loss at 100 mg/kg, po compound administered from day 17 to 20 (qdx4) measured on day 25 (reference value: <0%); assay type: organism-based, SJSA-1; parameters: dose 100 mg/kg, route oral; settings: in vivo
SJSA-1 [8] = assay: Antitumor activity against human SJSA1 cells xenografted in BALB/c SLc-nu/nu mouse assessed as increase in p53 accumulation in tumor at 25 to 100 mg/kg, po single dose by Western blot analysis; assay type: functional, organism-based
Mus musculus [9] = assay: Toxicity in human SJSA1 cells xenografted in BALB/c SLc-nu/nu mouse assessed as body weight loss at 12.5 mg/kg, po compound administered from day 17 to 20 (qdx4) measured on day 25 (reference value: <0%); assay type: organism-based, SJSA-1; parameters: dose 12.5 mg/kg, route oral; settings: in vivo
[10] = Plasma concentration in mouse at 50 mg/kg, po after 19 hrs; assay type: ADME, organism-based; parameters: dose 50 mg/kg, route oral
SJSA-1 [11] = assay: Antitumor activity against human SJSA1 cells xenografted in BALB/c SLc-nu/nu mouse assessed as tumor growth inhibition at 50 mg/kg, po compound administered from day 17 to 20 (qdx4) measured on day 25 (reference value: 0%); assay type: functional; settings: read-out: TGI
SJSA-1 [12] = assay: Induction of apoptosis in human SJSA1 cells xenografted in BALB/c SLc-nu/nu mouse assessed as PARP cleavage in tumor at 12.5 mg/kg, po single dose by Western blot analysis; assay type: functional, organism-based; parameters: dose 12.5 mg/kg
[13] = AUC in mouse plasma at 100 mg/kg, po; assay type: ADME, organism-based; parameters: dose 100 mg/kg, route oral
[14] = Plasma concentration in mouse at 25 mg/kg, po after 3 hrs; assay type: ADME, organism-based; parameters: dose 25 mg/kg, route oral
SJSA-1 [15] = assay: Antitumor activity against human SJSA1 cells xenografted in BALB/c SLc-nu/nu mouse assessed as increase in Mdm2 accumulation in tumor at 12.5 mg/kg, po single dose by Western blot analysis; assay type: functional, organism-based; parameters: dose 12.5 mg/kg
Mus musculus [16] = assay: Toxicity in human SJSA1 cells xenografted in BALB/c SLc-nu/nu mouse assessed as body weight loss at 50 mg/kg, po compound administered from day 17 to 20 (qdx4) measured on day 25 (reference value: <0%); assay type: organism-based, SJSA-1; parameters: dose 50 mg/kg, route oral; settings: in vivo
SJSA-1 [17] = assay: Antitumor activity against human SJSA1 cells xenografted in BALB/c SLc-nu/nu mouse assessed as tumor growth inhibition at 25 mg/kg, po compound administered from day 17 to 20 (qdx4) measured on day 25 (reference value: 0%); assay type: functional; settings: read-out: TGI
[18] = Plasma concentration in mouse at 25 mg/kg, po after 6 hrs; assay type: ADME, organism-based; parameters: dose 25 mg/kg, route oral
[19] = AUC in mouse plasma at 50 mg/kg, po; assay type: ADME, organism-based; parameters: dose 50 mg/kg, route oral
SJSA-1 [20] = assay: Antitumor activity against human SJSA1 cells xenografted in BALB/c SLc-nu/nu mouse assessed as tumor growth inhibition at 100 mg/kg, po compound administered from day 17 to 20 (qdx4) measured on day 25 (reference value: 0%); assay type: functional; settings: read-out: TGI
[21] = Cmax in mouse at 50 mg/kg, po; assay type: ADME, organism-based; parameters: dose 50 mg/kg, route oral; settings: in vivo
[22] = Plasma concentration in mouse at 100 mg/kg, po after 19 hrs; assay type: ADME, organism-based; parameters: dose 100 mg/kg, route oral
[23] = Plasma concentration in mouse at 50 mg/kg, po after 24 hrs; assay type: ADME, organism-based; parameters: dose 50 mg/kg, route oral
[24] = Plasma concentration in mouse at 50 mg/kg, po after 6 hrs; assay type: ADME, organism-based; parameters: dose 50 mg/kg, route oral
[25] = Cmax in mouse at 25 mg/kg, po; assay type: ADME, organism-based; parameters: dose 25 mg/kg, route oral; settings: in vivo
SJSA-1 [26] = assay: Antitumor activity against human SJSA1 cells xenografted in BALB/c SLc-nu/nu mouse assessed as increase in p21 accumulation in tumor at 12.5 mg/kg, po single dose by Western blot analysis; assay type: functional, organism-based; parameters: dose 12.5 mg/kg
[27] = Plasma concentration in mouse at 100 mg/kg, po after 3 hrs; assay type: ADME, organism-based; parameters: dose 100 mg/kg, route oral
[28] = Plasma concentration in mouse at 100 mg/kg, po after 6 hrs; assay type: ADME, organism-based; parameters: dose 100 mg/kg, route oral
[29] = Plasma concentration in mouse at 100 mg/kg, po after 24 hrs; assay type: ADME, organism-based; parameters: dose 100 mg/kg, route oral
[30] = Plasma concentration in mouse at 50 mg/kg, po after 3 hrs; assay type: ADME, organism-based; parameters: dose 50 mg/kg, route oral
Mus musculus [31] = assay: Toxicity in human SJSA1 cells xenografted in BALB/c SLc-nu/nu mouse assessed as body weight loss at 25 mg/kg, po compound administered from day 17 to 20 (qdx4) measured on day 25 (reference value: <0%); assay type: organism-based, SJSA-1; parameters: dose 25 mg/kg, route oral; settings: in vivo
SJSA-1 [32] = assay: Antitumor activity against human SJSA1 cells xenografted in BALB/c SLc-nu/nu mouse assessed as tumor growth inhibition at 12.5 mg/kg, po compound administered from day 17 to 20 (qdx4) measured on day 25 (reference value: 0%); assay type: functional; settings: read-out: TGI

GI50 (SJSA-1 [1]): 26 nM
solubility [2]: 640 µg/mL (≈ 928 µM)
remaining at 0.5 h, 1 µM [4]: 79%
Compound: CC(C)C1=C(C(=O)N2C[C@H](F)C[C@H]2C(=O)N2CC3(CC3)NC[C@@H]2C)SC2=N[C@@](C)(c3ccc(Cl)nc3)[C@@H](c3ccc(Cl)c(F)c3)N21
GI50 at 72 h [3]: > 50000 nM

Cmax [5]: 26100 ng/mL
AUC [6]: 47.1 µg·h/mL
GI50 (SJSA-1 [1]): 170 nM
concentration at 19 h [10]: 10 ng/mL
AUC [13]: 259 µg·h/mL
concentration at 3 h [14]: 6000 ng/mL
solubility [2]: 420 µg/mL (≈ 597 µM)
concentration at 6 h [18]: 3600 ng/mL
AUC [19]: 147 µg·h/mL
Cmax [21]: 15900 ng/mL
concentration at 19 h [22]: 160 ng/mL
concentration at 24 h [23]: 20 ng/mL
concentration at 6 h [24]: 12400 ng/mL
Cmax [25]: 6000 ng/mL
concentration at 3 h [27]: 26100 ng/mL
remaining at 0.5 h, 1 µM [4]: 84%
concentration at 6 h [28]: 22300 ng/mL
concentration at 24 h [29]: 10 ng/mL
concentration at 3 h [30]: 15900 ng/mL
Compound: CC[C@@H]1CNC2(CC2)CN1C(=O)[C@@H]1C[C@@H](F)CN1C(=O)C1=C(C(C)C)N2C(=N[C@@](C)(c3ccc(Cl)nc3)[C@H]2c2ccc(Cl)c(F)c2)S1
Activity (Mus musculus [7]): 1.2%
Activity (SJSA-1 [8]): Active
Activity (Mus musculus [9]): 0.2%
inhibition in vivo at 50 mg/kg (SJSA-1 [11]): 93.7%
Activity (SJSA-1 [12]): Active
Activity (SJSA-1 [15]): Active
Activity (Mus musculus [16]): 0.7%
inhibition in vivo at 25 mg/kg (SJSA-1 [17]): 72.3%
GI50 at 72 h [3]: > 50000 nM
inhibition in vivo at 100 mg/kg (SJSA-1 [20]): 96.6%
Activity (SJSA-1 [26]): Active
Activity (Mus musculus [31]): 0.2%
inhibition in vivo at 12.5 mg/kg (SJSA-1 [32]): 29.7%

GI50 (SJSA-1 [1]): 1080 nM
solubility [2]: 38 µg/mL (≈ 57 µM)
remaining at 0.5 h, 1 µM [4]: 41%
Compound: CC(C)C1=C(C(=O)N2[C@H](C)CC[C@H]2C(=O)N2CCN(C)C3(CC3)C2)SC2=N[C@@](C)(c3ccc(Cl)cc3)[C@@H](c3ccc(Cl)cc3)N21
GI50 at 72 h [3]: 17200 nM

GI50 (SJSA-1 [1]): 650 nM
solubility [2]: 56 µg/mL (≈ 85.8 µM)
remaining at 0.5 h, 1 µM [4]: 87%
Compound: CC(C)C1=C(C(=O)N2[C@H](C)CC[C@H]2C(=O)N2CCNC3(CC3)C2)SC2=N[C@@](C)(c3ccc(Cl)cc3)[C@@H](c3ccc(Cl)cc3)N21
GI50 at 72 h [3]: 16200 nM

GI50 (SJSA-1 [1]): 660 nM
solubility [2]: 330 µg/mL (≈ 491 µM)
remaining at 0.5 h, 1 µM [4]: 80%
Compound: CC(C)C1=C(C(=O)N2[C@H](C)CC[C@H]2C(=O)N2CCNC3(CC3)C2)SC2=N[C@@](C)(c3ccc(Cl)nc3)[C@@H](c3ccc(Cl)c(F)c3)N21
GI50 at 72 h [3]: > 50000 nM

GI50 (SJSA-1 [1]): 850 nM
remaining at 0.5 h, 1 µM [4]: 74%
Compound: CC(C)C1=C(C(=O)N2[C@H](C)CC[C@H]2C(=O)N2CCN(C)[C@H](C)C2)SC2=N[C@@](C)(c3ccc(Cl)cc3)[C@@H](c3ccc(Cl)cc3)N21

GI50 (SJSA-1 [1]): 350 nM
solubility [2]: 51 µg/mL (≈ 76 µM)
remaining at 0.5 h, 1 µM [4]: 85%
Compound: CC(C)C1=C(C(=O)N2[C@H](C)CC[C@H]2C(=O)N2CCNC3(CC3)C2)SC2=N[C@@](C)(c3ccc(Cl)cc3)[C@@H](c3ccc(Cl)c(F)c3)N21
GI50 at 72 h [3]: 16700 nM

GI50 (SJSA-1 [1]): 240 nM
solubility [2]: 720 µg/mL (≈ 1050 µM)
remaining at 0.5 h, 1 µM [4]: 100%
Compound: CC(C)C1=C(C(=O)N2[C@H](C)CC[C@H]2C(=O)N2CC3(CC3)NC[C@@H]2C)SC2=N[C@@](C)(c3ccc(Cl)nc3)[C@@H](c3ccc(Cl)c(F)c3)N21
GI50 at 72 h [3]: > 50000 nM
